We go through eight compounds from ChEMBL document CHEMBL1157889, “Peripheral site acetylcholinesterase inhibitors targeting both inflammation and cholinergic dysfunction” (Bioorg Med Chem Lett, 2010).

As usually defined, the IC50 is the midpoint of a concentration-inhibition curve.

Structures are written as SMILES.

Data set [1] is described as follows: Chemical stability assessed as hydrolysis half life in presence of 80% human plasma. The class given is ADME, cell-free.
The target of the next data set is Acetylcholinesterase (Electrophorus electricus, UniProt O42275). Kind of data set: Inhibition of electric eel AChE by Ellman's method. A general note: Ellman's reagent forms a yellow product with free thiols.
Acetylcholinesterase, sequence (O42275 whole entry): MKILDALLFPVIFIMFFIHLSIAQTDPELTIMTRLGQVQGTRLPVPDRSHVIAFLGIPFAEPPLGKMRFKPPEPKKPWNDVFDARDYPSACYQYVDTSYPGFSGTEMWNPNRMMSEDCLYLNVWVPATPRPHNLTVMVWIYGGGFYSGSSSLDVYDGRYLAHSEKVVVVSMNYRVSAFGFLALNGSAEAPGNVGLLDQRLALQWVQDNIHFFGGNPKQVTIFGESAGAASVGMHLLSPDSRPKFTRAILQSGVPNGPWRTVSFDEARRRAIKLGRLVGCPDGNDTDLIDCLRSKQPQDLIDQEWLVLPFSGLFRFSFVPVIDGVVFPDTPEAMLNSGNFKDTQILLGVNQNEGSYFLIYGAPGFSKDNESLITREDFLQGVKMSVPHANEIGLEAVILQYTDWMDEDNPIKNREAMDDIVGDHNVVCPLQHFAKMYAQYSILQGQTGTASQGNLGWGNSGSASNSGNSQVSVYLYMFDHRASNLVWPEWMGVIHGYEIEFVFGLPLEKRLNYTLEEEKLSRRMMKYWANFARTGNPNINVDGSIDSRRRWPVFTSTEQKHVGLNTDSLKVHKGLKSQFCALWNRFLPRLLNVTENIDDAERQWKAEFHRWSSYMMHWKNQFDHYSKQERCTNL

In the case of `COc1ccc2cc([C@H](C)C(=O)OCCC(C)(C)C)ccc2c1`, the t1/2 in data set [1] amounted to 0.633 h. On to `COc1ccc2cc([C@H](C)C(=O)OCc3ccc(OC(=O)OCC[Si](C)(C)C)cc3)ccc2c1`, for which, in data set [1], the t1/2 turned out to be 4.22 h. For the compound `CC(C)(C)CCOC(=O)Oc1ccc(COC(=O)Cc2ccccc2Nc2c(Cl)cccc2Cl)cc1`, the IC50 against Acetylcholinesterase is 510 nM. Also, the t1/2 in data set [1] was found to be 5.95 h.

For the compound `COc1ccc2c(c1)c(CC(=O)OCc1ccc(OC(=O)OCCC(C)(C)C)cc1)c(C)n2C(=O)c1ccc(Cl)cc1`, in data set [1], the t1/2 stood at 7.8 h. Take `CC(C)(C)CCOC(=O)Cc1ccccc1Nc1c(Cl)cccc1Cl`: in data set [1], the t1/2 turned out to be 1.85 h. For the compound `COc1ccc2cc([C@H](C)C(=O)OCC[Si](C)(C)C)ccc2c1`, the t1/2 in data set [1] turned out to be 1.05 h. With `COc1ccc2cc([C@H](C)C(=O)OCc3ccc(OC(=O)OCCC(C)(C)C)cc3)ccc2c1`, in data set [1], the t1/2 amounted to 2.25 h.

As for `CC(C)Cc1ccc(C(C)C(=O)OCc2ccc(OC(=O)OCCC(C)(C)C)cc2)cc1` (centres undefined), the t1/2 in data set [1] was determined as 3.4 h.
